According to patent publication US20240067693A1, “POLYPEPTIDES AND USES THEREOF” (MEDIMMUNE LIMITED, priority 2020, published 2024):
Numbered stars: 1 amine (or outer) side, 2 acyl side, 3 side chain; on linkers, the order of the positions; unused ones are H or OH. Bridge positions count the residues as written; N and C are the ends. Square brackets hold non-standard residues; d marks the D form. Side chains are listed from the residue outwards. Peptide text beside a SMILES is read from it. * marks the point of attachment. C18 diacid = O=C(O)CCCCCCCCCCCCCCCCC(=O)*; γGlu = O=C(O)[C@H](CCC(=O)[*:2])N[*:1]; Aib = CC(C)(N)C(=O)O

What was measured:
[1] = molecular target: T1, human calcitonin receptor (hCTR) (Homo sapiens, UniProt P30988); experiment: cAMP production in 1321N1 cells with stable recombinant expression of human calcitonin receptor (hCTR); assay type: cell-based; conditions: cAMP, 1321N1 cells, assay buffer with 0.1% BSA; read-out: EC50 (pM) hCTR
T1 construct: expressed in transfected cells
T1 sequence (P30988 25-474): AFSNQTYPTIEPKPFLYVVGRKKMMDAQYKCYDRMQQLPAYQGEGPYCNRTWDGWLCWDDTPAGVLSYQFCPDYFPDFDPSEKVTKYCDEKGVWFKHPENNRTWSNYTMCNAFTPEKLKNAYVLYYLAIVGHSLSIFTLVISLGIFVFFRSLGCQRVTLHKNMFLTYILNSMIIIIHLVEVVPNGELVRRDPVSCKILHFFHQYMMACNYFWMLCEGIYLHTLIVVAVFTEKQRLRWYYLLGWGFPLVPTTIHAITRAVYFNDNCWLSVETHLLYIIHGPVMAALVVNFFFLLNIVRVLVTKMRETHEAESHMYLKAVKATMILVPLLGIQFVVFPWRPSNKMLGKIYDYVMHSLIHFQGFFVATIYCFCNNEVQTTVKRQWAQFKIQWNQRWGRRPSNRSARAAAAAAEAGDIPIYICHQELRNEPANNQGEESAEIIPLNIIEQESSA
Method in brief: (§1)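 Thawed cells in HBSS/0.1% BSA/25 mM HEPES pH 7.4 with 0.5 mM IBMX were incubated with peptides 30 min at room temperature; cAMP read by HTRF. EC50 from 4-parameter fit of % activation relative to maximal amylin or calcitonin effect.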

[2] = molecular target: T2, human amylin receptor (calcitonin receptor co-expressed with receptor activity modifying protein, RAMP3) (hAMYR3) (Homo sapiens, UniProt O60896+P30988); experiment: cAMP production in 1321N1 cells with stable recombinant expression of human amylin receptor (hAMYR3); assay type: cell-based; conditions: for Ratio (selectivity hAMYR vs hCTR, ratio of EC50 values at the two receptors): EC50 hCTR / EC50 hAMYR3; for EC50: cAMP, 1321N1 cells, assay buffer with 0.1% BSA, read-out: EC50 (pM) hAMYR3
T2 construct: expressed in transfected cells
T2 sequence (P30988 25-474): T1 sequence (P30988 25-474)
T2 sequence (O60896 24-148 partner): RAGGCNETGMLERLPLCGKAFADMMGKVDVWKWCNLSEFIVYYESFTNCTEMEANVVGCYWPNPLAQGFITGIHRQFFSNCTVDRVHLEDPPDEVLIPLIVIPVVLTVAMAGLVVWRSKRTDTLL
Method in brief: as §1

SMILES	EC50 [1] [pM]	Ratio (selectivity hAMYR vs hCTR, ratio of EC50 values at the two receptors) [2]	EC50 [2] [pM]
CC[C@H](C)[C@H](NC(=O)[C@@H]1CCCN1C(=O)CNC(=O)[C@H](Cc1ccccc1)NC(=O)[C@H](CC(N)=O)NC(=O)C(C)(C)NC(=O)[C@H](CO)NC(=O)[C@H](CO)NC(=O)[C@H](Cc1c[nH]cn1)NC(=O)[C@@H](NC(=O)[C@H](CC(C)C)NC(=O)[C@H](Cc1ccccc1)NC(=O)[C@H](CC(N)=O)NC(=O)[C@H](C)NC(=O)[C@H](CC(C)C)NC(=O)[C@H](CCCNC(=N)N)NC(=O)[C@H](CCC(N)=O)NC(=O)[C@@H](NC(=O)[C@H](C)NC(=O)[C@@H]1CSSC[C@H](NC(=O)[C@H](CCCCN)NC(=O)[C@@H](N)CCCCNC(=O)CC[C@H](NC(=O)CCCCCCCCCCCCCCCCC(=O)O)C(=O)O)C(=O)N[C@@H](CC(N)=O)C(=O)N[C@@H]([C@@H](C)O)C(=O)N[C@@H](C)C(=O)N[C@@H]([C@@H](C)O)C(=O)N1)[C@@H](C)O)C(C)C)C(=O)N[C@@H](CC(C)C)C(=O)N1CCC[C@H]1C(=O)N1CCC[C@H]1C(=O)N[C@H](C(=O)N[C@@H](CC(N)=O)C(=O)N[C@H](C(=O)NCC(=O)N[C@@H](CO)C(=O)N[C@@H](CC(N)=O)C(=O)N[C@H](C(=O)NC(C)(C)C(N)=O)[C@@H](C)O)C(C)C)[C@@H](C)O [Peptide 85, K(γE-C18diacid)K[CNTATC]ATQRLANFLVHSS(Aib)NFGPILPPTNVGSNT(Aib)-amide] (H-K([γGlu-C18 diacid])KCNTATCATQRLANFLVHSS[Aib]NFGPILPPTNVGSNT[Aib]-NH2; disulfide 3-8; N-terminus assumed)	3100	4	806
CC[C@H](C)[C@H](NC(=O)[C@@H]1CCCN1C(=O)CNC(=O)[C@H](Cc1ccccc1)NC(=O)[C@H](CC(N)=O)NC(=O)C(C)(C)NC(=O)[C@H](CO)NC(=O)[C@H](CO)NC(=O)[C@H](Cc1c[nH]cn1)NC(=O)C(C)(C)NC(=O)[C@H](CC(C)C)NC(=O)[C@H](Cc1ccccc1)NC(=O)[C@H](Cc1c[nH]cn1)NC(=O)[C@H](C)NC(=O)[C@H](CC(C)C)NC(=O)[C@H](CCCNC(=N)N)NC(=O)[C@H](CCC(N)=O)NC(=O)[C@@H](NC(=O)[C@H](C)NC(=O)[C@@H]1CSSC[C@H](NC(=O)[C@H](CCCCN)NC(=O)[C@@H](N)CCCCNC(=O)CC[C@H](NC(=O)CCCCCCCCCCCCCCCCC(=O)O)C(=O)O)C(=O)N[C@@H](CC(N)=O)C(=O)N[C@@H]([C@@H](C)O)C(=O)N[C@@H](C)C(=O)N[C@@H]([C@@H](C)O)C(=O)N1)[C@@H](C)O)C(=O)N[C@@H](CC(C)C)C(=O)N1CCC[C@H]1C(=O)N1CCC[C@H]1C(=O)N[C@H](C(=O)N[C@@H](CCC(=O)O)C(=O)N[C@H](C(=O)NCC(=O)N[C@@H](CO)C(=O)N[C@@H](CC(N)=O)C(=O)N[C@H](C(=O)N[C@@H](Cc1ccc(O)cc1)C(N)=O)[C@@H](C)O)C(C)C)[C@@H](C)O [Peptide 86, K(γE-C18diacid)K[CNTATC]ATQRLAHFL(Aib)HSS(Aib)NFGPILPPTEVGSNTY-amide] (H-K([γGlu-C18 diacid])KCNTATCATQRLAHFL[Aib]HSS[Aib]NFGPILPPTEVGSNTY-NH2; disulfide 3-8)	311	3	119
CC[C@H](C)[C@H](NC(=O)[C@@H]1CCCN1C(=O)CNC(=O)[C@H](Cc1ccccc1)NC(=O)[C@H](CC(N)=O)NC(=O)C(C)(C)NC(=O)[C@H](CO)NC(=O)[C@H](CO)NC(=O)[C@H](Cc1c[nH]cn1)NC(=O)C(C)(C)NC(=O)[C@H](CC(C)C)NC(=O)[C@H](Cc1ccccc1)NC(=O)[C@H](CC(N)=O)NC(=O)[C@H](C)NC(=O)[C@H](CC(C)C)NC(=O)[C@H](CCCNC(=N)N)NC(=O)[C@H](CCC(N)=O)NC(=O)[C@@H](NC(=O)[C@H](C)NC(=O)[C@@H]1CSSC[C@H](NC(=O)[C@H](CCCCN)NC(=O)[C@@H](N)CCCCNC(=O)CC[C@H](NC(=O)CCCCCCCCCCCCCCCCC(=O)O)C(=O)O)C(=O)N[C@@H](CC(N)=O)C(=O)N[C@@H]([C@@H](C)O)C(=O)N[C@@H](C)C(=O)N[C@@H]([C@@H](C)O)C(=O)N1)[C@@H](C)O)C(=O)N[C@@H](CC(C)C)C(=O)N1CCC[C@H]1C(=O)N1CCC[C@H]1C(=O)N[C@H](C(=O)N[C@@H](CC(N)=O)C(=O)N[C@H](C(=O)NCC(=O)N[C@@H](CO)C(=O)N[C@@H](CC(N)=O)C(=O)N[C@H](C(=O)N1CCC[C@H]1C(N)=O)[C@@H](C)O)C(C)C)[C@@H](C)O [Peptide 87, K(γE-C18diacid)K[CNTATC]ATQRLANFL(Aib)HSS(Aib)NFGPILPPTNVGSNTP-amide] (H-K([γGlu-C18 diacid])KCNTATCATQRLANFL[Aib]HSS[Aib]NFGPILPPTNVGSNTP-NH2; disulfide 3-8; N-terminus assumed)	74	1	71
CC[C@H](C)[C@H](NC(=O)[C@@H]1CCCN1C(=O)CNC(=O)[C@H](Cc1ccccc1)NC(=O)[C@H](CC(N)=O)NC(=O)C(C)(C)NC(=O)[C@H](CO)NC(=O)[C@H](CO)NC(=O)[C@H](Cc1c[nH]cn1)NC(=O)[C@@H](NC(=O)[C@H](CC(C)C)NC(=O)[C@H](Cc1ccccc1)NC(=O)[C@H](CC(N)=O)NC(=O)[C@H](C)NC(=O)[C@H](CC(C)C)NC(=O)[C@H](CCCNC(=N)N)NC(=O)[C@H](CCC(N)=O)NC(=O)[C@@H](NC(=O)[C@H](C)NC(=O)[C@@H]1CSSC[C@H](NC(=O)[C@H](CCCCN)NC(=O)[C@@H](N)CCCCNC(=O)CC[C@H](NC(=O)CCCCCCCCCCCCCCCCC(=O)O)C(=O)O)C(=O)N[C@@H](CC(N)=O)C(=O)N[C@@H]([C@@H](C)O)C(=O)N[C@@H](C)C(=O)N[C@@H]([C@@H](C)O)C(=O)N1)[C@@H](C)O)C(C)C)C(=O)N[C@@H](CC(C)C)C(=O)NC(C)(C)C(=O)N1CCC[C@H]1C(=O)N[C@H](C(=O)N[C@@H](CC(N)=O)C(=O)N[C@H](C(=O)NCC(=O)N[C@@H](CO)C(=O)N[C@@H](CC(N)=O)C(=O)N[C@H](C(=O)N[C@@H](Cc1ccc(O)cc1)C(N)=O)[C@@H](C)O)C(C)C)[C@@H](C)O [Peptide 88, K(γE-C18diacid)K[CNTATC]ATQRLANFLVHSS(Aib)NFGPIL(Aib)PTNVGSNTY-amide] (H-K([γGlu-C18 diacid])KCNTATCATQRLANFLVHSS[Aib]NFGPIL[Aib]PTNVGSNTY-NH2; disulfide 3-8; N-terminus assumed)	1170	4	281
